According to patent publication EP3381906A1, “COMPOUNDS FOR USE AS HEPARANASE INHIBITORS” (Leadiant Biosciences SA, priority 2017, dated 2018):

Tests used:
[1] = system: HT1080 (human fibrosarcoma); assay: SRB Cell Cytotoxicity Assay; type: cell-based; details: HT-1080, HT1080, treated for 72h, read-out: Concentration of test compounds at which the cell growth is inhibited by 50 % HT1080
From the text: (§1) SRB Cell Cytotoxicity Assay is an assay based upon the quantitative staining of cellular proteins by sulforhodamine B (SRB). This assay can be used for high-throughput drug screening (Vichai & Kirkitara, Nature Protocol. 2006, 1, 112). Sulforhodamine B is an anionic aminoxanthene dye that forms an electrostatic complex with the basic amino acid residues of proteins under moderately acid conditions, which provides a sensitive linear response.
(§2) To assess a putative antiproliferative activity of the selected compounds, HT1080 (human fibrosarcoma), U87MG (human glioblastoma astrocytoma) and U2OS (human osteosarcoma) cell lines were treated for 72h, in triplicate, with increasing concentrations of heparanase inhibitors. Inhibition of cell proliferation was then measured by the classical colorimetric SRB Cell Cytotoxicity assay. Absorbance was measured by spectrophotometer at a wavelength of 510 nm and cell proliferation was determined as percent with respect to control cells (cells treated with the vehicle alone). EC50 values were then determined by GraphPad Prism.

[2] = system: U2OS (human osteosarcoma); assay: SRB Cell Cytotoxicity Assay; type: cell-based; details: treated for 72h, read-out: Concentration of test compounds at which the cell growth is inhibited by 50 % U2OS
From the text: as §1, §2

[3] = system: U87MG (human glioblastoma astrocytoma); assay: SRB Cell Cytotoxicity Assay; type: cell-based; details: U-87 MG, treated for 72h, read-out: Concentration of test compounds at which the cell growth is inhibited by 50 % U87MG
From the text: as §1, §2

U87MG = assay: Cell adhesion assay on matrigel coated wells; type: cell-based, human; details: Conc. 10 µM, percent of adhesion with respect to the control (100%)
HPSE-1 = assay: Real-Time Quantitative PCR of pro-angiogenic genes in HT1080 cells; type: cell-based, human; details: 24 h, Conc 10.0 uM
Experimental: To evaluate the effect of heparanase inhibitors on the tumor transcription of genes encoding for proangiogenic factors, such as FGF1/2, VEGF, MMP-9, HSPE-1, the relative mRNA levels were analyzed by quantitative Real-Time Quantitative PCR. To perform the assay, HT1080 (human fibrosarcoma) cells were cultured in complete medium containing 10%FCS (fetal calf serum). Cells were plated in 24-well plates and treated at fixed concentration (i.e., highest non-toxic concentration) of test compounds. After 24 h, cells were detached, collected and total RNA extracted by RNeasy Mini Kit (QIAGEN). Following reverse transcription step, FGF1/2, VEGF, MMP-9, HSPE-1 mRNA levels, were quantified by qPCR using the advanced Universal SYBR Green Supermix (Bio Rad) and ABI PRISM 7900HT Thermal Cycler System (Perkin Elmer), according to the manufacturer's instructions. […] Relative levels of RNA were calculated using the ddCt method. Standard curve and sample data were run in duplicate.

COc1cc(N=Nc2cc(S(=O)(=O)O)cc3cc(S(=O)(=O)O)cc(O)c23)c(C)cc1NC(=O)Nc1cc(C)c(N=Nc2cc(S(=O)(=O)O)cc3cc(S(=O)(=O)O)cc(O)c23)cc1OC [SST0597]
EC50 [1]: > 10 µM
EC50 [2]: > 10 µM
EC50 [3]: > 10 µM
Adhesion Assay (%) U87MG (U87MG): ∼ 23%
Gene Expression (% mRNA vs. control) HPSE-1 (HPSE-1): ∼ 100%
